Test results from PMC5789847, “Bismuth antimicrobial drugs serve as broad-spectrum metallo-β-lactamase inhibitors” (Nature Communications, 2018).

Experiments:
VIM-BL21 (VIM-2^+) = test: microbe, parasite or virus in culture; type: cell-based, E. coli
Description: (§1) MIC values were determined by standard broth micro-dilution method (Clinical and Laboratory Standards Institute (CLSI) M100-S20, 2010)[64]. Briefly, bacterial cells were cultured in LB broth overnight at 37 °C at 250 rpm and the OD was measured at 600 nm (OD600). The bacterial density was adjusted to about 1 × 10^6 CFU mL^−1 and checked by CFU counting on agar plates afterwards. Tested antibiotics or Bi(III) compounds were added triplicately into individual wells of flat-bottomed 96-well plates and performed 2-fold serial dilution, followed by addition of prepared bacterial inocula. The plate was then incubated at 37 °C for overnight. […] The MIC was determined as the lowest concentration of a drug that could inhibit the growth of microorganism by both visual reading and OD reading at 600 nm using a microtiter plate reader.
(§2) Resulting growth (or lack of growth) was examined after overnight culturing and the lowest concentration that inhibits 99.9% of the original culture was taken as MBC.
(§3) Other procedures were kept strictly the same. […] Synergism was defined when FICI ≤ 0.5, indifference was defined when FICI > 0.5 and < 4, and antagonism was defined when FICI≥4[65]. […] All of the determinations were performed at least in triplicate on different days.

IMP-BL21 (IMP-4^+) = test: microbe, parasite or virus in culture; type: cell-based, E. coli
Description: as §1, §2, §3

NDM-HK (NDM-1^+) = test: microbe, parasite or virus in culture; type: cell-based, E. coli; settings: Escherichia coli
Description: as §1, §2, §3

NDM-HK [1] = test: Murine peritonitis infection, mucin-assisted model; type: in vivo, BALB/c mice; settings: 2% mucin, i.p. twice daily
From the text: All experiments were approved by, and performed in accordance with the guidelines approved by Committee on the Use of Live Animals in Teaching and Research (CULATR), the University of Hong Kong. A total of 6–8-week-old, female BALB/c mice (18–22 g) were purchased from Charles River Laboratories, Inc. and were used in all mouse studies. The animals were randomized to cages for each experiment.
In mucin-assisted model, for infection with NDM-1-positive bacteria, an overnight culture of NDM-HK was performed 1:250 dilution in 100 mL LB broth and re-grew to about OD600 0.3 in a 500-mL flask after 2.5 h shaking at 37 °C, 250 rpm. Bacterial pellets were collected and washed by PBS buffer three times for further use. Mice were infected intraperitoneally (i.p.) with a dose of 1 × 10^5 CFU of bacteria in PBS supplemented with 2% mucin. […] Twice-daily treatment via i.p. injection was continued throughout the whole experimental course. For the infection with NDM-1-negative bacteria, all the operations of infection were similar to those used for NDM-HK, except that NDM-HK PCV was used as infection-causing bacteria. […] Twice-daily treatment via i.p. injection was continued throughout the whole experimental course. Body weights and mice survival were monitored till endpoint of the experiment.

[2] = system: NDM-C. freundii (NDM-1^+); test: Microdilution MIC/MBC and checkerboard assay; type: cell-based, Citrobacter freundii; settings: NDM-C. freundii (NDM-CF)
Description: as §1, §2, §3

NDM-HK PCV = test: Murine peritonitis infection with NDM-1-negative bacteria; type: in vivo, BALB/c mice; settings: identical dose of MER, lethal dose of NDM-HK PCV
NDM-HK [3] = test: In vitro cell infection assay (MDCK cells); type: cell-based, E. coli; settings: MOI 200, MER at 2-fold MIC alone, overnight
Description: MDCK cell was cultured in minimum essential Media (MEM) supplemented with fetal bovine serum (FBS, 10%) and grown at 37 °C in 5% CO2-humidified atmosphere for 3 days. About 1.0 × 10^5 MDCK cells were seeded per well in 24-well plates and incubated as described above for 48 h to ensure confluency. Logarithmic cultures of NDM-HK were washed with PBS for three times and re-suspended in MEM/10% FBS resulting in the initial bacterial density of about 2.0 × 10^7 CFU mL^−1. Then, 500 μL of bacterial suspension were added to each well and substituted for the previous MDCK culture medium. The plates were centrifuged at 800 × g for 10 min and then incubated for another 6 h, executing the bacterial infection at multiplicity of infection (MOI) of 200. We then used two infection models for examination, viz, the cell-associated bacterial infection and cell-invaded bacterial infection. The cell-associated bacteria are herein defined as bacteria that attach to, penetrate, or transcytose in MDCK cells, while the cell-invaded bacteria are defined as bacteria that penetrate or transcytose MDCK cells. For the cell-invaded infection, the infected cells were incubated in culture medium supplemented with ciprofloxacin (100 µg mL^−1) for 1 h to remove extracellular bacteria. Then, the treated cells were washed vigorously with PBS for six times and replenished with culture medium. For the cell-associated infection, the infected cells were only washed vigorously with PBS for six times to remove unbound bacteria. The infected MDCK cells were then exposed to either MER or CBS, or their combination for overnight under identical cell culture condition. Cells in the absence of drugs served as a control. The bacterial loads were examined by lysing MDCK cells with 1% Triton X-100 in PBS and serially diluting the resulting lysates to enumerate bacterial colonies by agar plating. The assay was performed in triplicate, repeated three times, and results were expressed as average ± SD.

NDM-Rosetta OX = test: Microdilution MIC assay; type: cell-based, E. coli; settings: Escherichia coli, CBS0, read-out: MIC of MER, CBS at 0, NDM-Rosetta OX (NDM-1 overexpressing); CBS 0 µg mL-1
Description: For the test of NDM-Rosetta OX, the growth condition briefly goes as follow. Overnight culture of NDM-Rosetta was 1000-fold diluted into fresh LB medium and regrew to OD ~0.6. The overexpression of NDM-1 was induced by addition of 1 mM isopropyl β-D-1-thiogalactopyranoside (IPTG) for 4 h at 37 °C. The following susceptibility test was performed as described in the Microdilution MIC and MBC assay section in the methodology by using the resulting bacterial pellets with the supplementation of 200 µM IPTG.
(§4) Other procedures were kept strictly the same.

NDM-Rosetta = test: Microdilution MIC assay; type: cell-based, E. coli; settings: Escherichia coli, CBS0, read-out: MIC of MER, CBS at 0
From the text: as §4

NDM-BL21 = test: Microdilution MIC assay; type: cell-based, E. coli; settings: Escherichia coli, CBS0, read-out: MIC of MER, CBS at 0
From the text: as §4

C208A-Rosetta = test: Microdilution MIC assay; type: cell-based, E. coli; settings: Escherichia coli, CBS0, read-out: MIC of MER, CBS at 0
Description: For the test of C208A-Rosetta, the growth condition briefly goes as follow. Overnight culture of C208A-Rosetta was diluted into fresh LB medium (1000-fold) and regrew to OD ~0.6. The overexpression of NDM-1-C208A was induced by addition of 200 μM isopropyl β-D-1-thiogalactopyranoside (IPTG) for 18 h at 25 °C. The following susceptibility test was performed as described in the Microdilution MIC and MBC assay section in the methodology by using the resulting bacterial pellets with the supplementation of 200 μM IPTG.
as §4

NDM-HK [4] = test: Resistance study: MPC and mutation frequency; type: cell-based, E. coli; settings: no CBS
[5] = system: NDM-K. pneumonia (NDM-1^+); test: Microdilution MIC/MBC and checkerboard assay; type: cell-based, Klebsiella pneumonia; settings: NDM-K. pneumonia (NDM-KP)
Description: as §1, §2, §3

[6] = Escherichia coli, read-out: MBC of MER alone
[7] = Escherichia coli, read-out: MIC of MER alone

Structure (SMILES): C[C@@H](O)[C@H]1C(=O)N2C(C(=O)O)=C(S[C@@H]3CN[C@H](C(=O)N(C)C)C3)[C@H](C)[C@H]12 [MER, meropenem]
- MBC (VIM-BL21 (VIM-2^+); [6]): 32 µg/mL
- MIC (VIM-BL21 (VIM-2^+); [7]): 32 µg/mL
- MBC of MER alone (VIM-BL21 (VIM-2^+); VIM-BL21): 32/32 µg mL^-1
- MIC of MER alone (VIM-BL21 (VIM-2^+); VIM-BL21): 32/32 µg mL^-1
- MBC (IMP-BL21 (IMP-4^+); [6]): 32 µg/mL
- MIC (IMP-BL21 (IMP-4^+); [7]): 32 µg/mL
- MBC of MER alone (IMP-BL21 (IMP-4^+); IMP-BL21): 32/32 µg mL^-1
- MIC of MER alone (IMP-BL21 (IMP-4^+); IMP-BL21): 32/32 µg mL^-1
- MIC (NDM-HK (NDM-1^+); CBS0, read-out: MIC of MER alone): 16 µg/mL
- MBC (NDM-HK (NDM-1^+); read-out: MBC of MER alone): 16 µg/mL
- mice rescued at endpoint, MER monotherapy (NDM-HK [1]): two of the eight mice
- MBC ([2]; Citrobacter freundii, read-out: MBC of MER alone): 8 µg/mL
- MIC ([2]; Citrobacter freundii, read-out: MIC of MER alone): 8 µg/mL
- MBC of MER alone [2]: 8/8 µg mL^-1
- MIC of MER alone [2]: 8/8 µg mL^-1
- outcome of MER monotherapy in mice infected with NDM-HK PCV (NDM-HK PCV): cured all the mice
- viable bacterial loads, cell-associated infection (NDM-HK [3]): ~10^6 CFU
- MIC (NDM-Rosetta OX): 256 µg/mL
- MIC (NDM-Rosetta): 32 µg/mL
- MIC (NDM-BL21): 16 µg/mL
- MIC (C208A-Rosetta): 0.12 µg/mL
- MPC of MER alone (NDM-HK [4]): 32 folds of MIC
- MBC ([5]; Klebsiella pneumoniae, read-out: MBC of MER alone): 16 µg/mL
- MIC ([5]; Klebsiella pneumoniae, read-out: MIC of MER alone): 16 µg/mL
- MBC of MER alone [5]: 16/16 µg mL^-1
- MIC of MER alone [5]: 16/16 µg mL^-1
